System: serotonin-uptake
Test: Serotonin-uptake inhibition studies
Conditions: extensive studies conducted in respect of the present invention; no details

COc1ccc([C@@]23CCC(=O)C[C@@H]2N(C)CC3)cc1OC [mesembrine]
serotonin-uptake inhibition properties: do not show serotonin-uptake inhibition properties
